Laboratory results as given in patent US20210205292A1, “INHIBITORS OF CREB-CBP INTERACTION FOR TREATMENT OF LEUKEMIA” (The Board of Trustees of the Leland Stanford Junior …, priority 2016, published 2021).
Several values for one entry are separate records, joined by “and”; a condition that tells them apart may be missing. Equal values may be shown once. Entries after “also recorded” stand apart in the source; their conditions may differ.

Columns and labels:
[1] = molecular target: T1, CREB-CBP binding (KID-KIX) (Homo sapiens, UniProt Q92793); test: Split Renilla luciferase complementation assay; format: cell-based; details: 293T cells treated with forskolin; read-out: IC50, inhibition of the interaction between CREB and CBP
T1 construct: the KID and KIX domains were fused to the N- and C-terminal regions of Renilla luciferase, respectively; expressed in transfected cells; host or cells: 293T cells treated with forskolin
Method: (§1) KG-1 cell lines were created to express luciferase in a CREB-dependent or non-CREB-dependent fashion using lentiviral gene delivery. Cells were sorted for mCherry expression by flow cytometry and selected with puromycin. Luciferase activity was measured on a […] using the Promega Luciferase Activity Kit (Promega) per manufacturer's instructions following six hours of treatment with Compound A or 0.1% DMSO. The split Renilla luciferase complementation assay has been described previously (Li BX, and Xiao X. Discovery of a small-molecule inhibitor of the KIX-KID interaction. Chembiochem: a European journal of chemical biology. 2009; 10(17):2721-4). In this assay, the KID and KIX domains were fused to the N- and C-terminal regions of Renilla luciferase, respectively. Once KIX binds phosphorylated KID, the Renilla luciferase regions were brought together, resulting in luciferase activity.
(§2) To test the ability of Compound A to disrupt CREB-CBP binding in cells, a split Renilla luciferase complementation assay was performed. […] This early timepoint was selected to permit accurate reporter gene activity measurement prior to the onset of anticipated global cell dysfunction or death induced by Compound A. Treatment with 3 μM Compound A reduced luciferase activity by 33.2±7.7% at this timepoint. […] Thus, Compound A inhibits CREB function through disruption of CREB:CBP interaction.

[2] = test system: CREB-driven promoter (CRE); test: CREB-driven (CRE) luciferase reporter in KG-1 cells; format: cell-based; details: 6 hours
Method: as §1, §2

[3] = test system: CMV-driven promoter; test: CMV-driven luciferase reporter in KG-1 cells; format: cell-based; details: 6 hours
Method: as §1, §2

[4] = test system: primary AML patient bone marrow samples; test: Primary AML patient bone marrow samples, Trypan blue exclusion assay; format: cell-based, human; details: 2 μM, 72 hours
Method: (§3) AML cell lines were purchased from ATCC and maintained with IMDM (Gibco) supplemented with 10% FBS (Fisher Scientific) and 1% PSG (Gibco). Cells were plated at a density of 2-4×10^5 cells/ml, and treated with various doses of Compound A in 0.1% DMSO or 0.1% DMSO alone. Cell counts and viability were determined using the Vi-CELL XR Cell Viability Analyzer (Beckman Coulter). HL-60 and KG-1 cells overexpressing CREB or CBP were generated using lentiviral gene delivery with subsequent puromycin selection and FACs sorting for GFP. CREB knockdown was achieved by infecting cells with a lentivirus expressing the shRNA sequence 5′-[…]-3′ (SEQ ID NO:). For chemotherapy combination experiments, combination index values were calculated using median effects analysis on Calcusyn software. Human patient bone marrow samples were cultured in DMEM plus 20% FBS and 1×PSG, supplemented with recombinant GM-CSF (20 ng/ml), G-CSF (20 ng/ml), SCF (50 ng/ml), IL-3 (20 ng/ml), and IL-6 (10 ng/ml). Cells were plated at a concentration of 1×10^5 cells/ml in a 12-well plate. Vehicle (0.1% DMSO) or Compound A (2 μM) was added for up to 72 hours. All samples contained >85% AML blasts and were not sorted prior to performing experiments. […] Single cell suspensions of bone marrow culture were subsequently analyzed on a D×P10 flow cytometer (Cytek). […]

[5] = test system: CREB target genes in KG-1 and HL-60 cells; test: RT-PCR of target genes in KG-1 and HL-60 cells; format: cell-based
Method: Total RNA was isolated using the Aurum RNA Isolation Mini Kit, and the iScript cDNA Synthesis Kit was used to prepare samples for qPCR (Bio-Rad). PCR was performed on the CFX384 Real-Time System (Bio-Rad) and results were analyzed using the Livak method. For analysis of RNA-seq data as target genes of known transcription factors, a curated list of all human target genes was extracted from the TRANSFAC Pro database.
To assess for potential ‘off-target’ effects of Compound A, the RNA-Seq gene expression profiles of other transcription factors that bind CBP, including Rel, RelA, RelB, Foxo3, Foxo1 and Myb, were analyzed. […] PLoS One. 2011; 6(12):e28712) (FIG. 9, panel E).

[6] = test system: HL-60 cells; test: Flow cytometry of apoptosis (c-PARP+, aqua amine+) in HL-60 cells; format: cell-based, human; details: Homo sapiens, 72 hours, 2 mM, read-out: cells apoptotic or non-viable
Method: as §3

[7] = test system: HL-60 cells; test: HL-60 viability, combination of Compound A with kinase inhibitors; format: cell-based, human; details: 48 hours

T1 sequence (Q92793 587-666 limits assumed): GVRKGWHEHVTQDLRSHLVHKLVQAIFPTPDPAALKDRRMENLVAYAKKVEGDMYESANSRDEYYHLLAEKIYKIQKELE

N#Cc1ccc(NC(=O)c2cc3ccccc3cc2O)cc1 [Compound A, N-(4-cyanophenyl)-3-hydroxy-2-naphthamide]
IC50 [1]: ~3.2 µM and 3.2 µM | reduction of CREB-driven luciferase activity ([2]; 3 μM): 33.2±7.7% | CREB-driven luciferase activity ([2]; KG-1 cells, 3, 10 and 30 μM): significantly decreased; also recorded: reduced by Compound A in a dose-dependent fashion | CMV-driven luciferase expression [3]: unchanged | decreased viable cell count [4]: a range of responsiveness | Myb-driven gene expression (SP3, FPR1, PRODH, SLC34A2) [5]: No changes in gene expression were observed | CREB target gene expression (qPCR) ([5]; conditions as for RNA-Seq): consistently reduced CREB target gene expression | cytotoxicity at 2000 µM [6]: > 95% | viability ([7]; Compound A alone): 87.4±7.3% | viability ([7]; Compound A combined with ERK inhibitor): 55.3±3.4% | viability ([7]; Compound A combined with RSK inhibitor): 49.5±2.3%
